Assay results as given in US11807685B2, “Anti-CD47 antibody and uses thereof” (THE UAB RESEARCH FOUNDATION, priority 2021, dated 2023).

Key:
MDA-MB-468 cells [1] = test: In vitro cytotoxicity assay (CellTiter-Glo); type: cell-based, human; details: for cell viability: 3-day assay
Method: (§1) The 96-well plates were seeded with MDA-MB-231 and MDA-MB-468 cells at VCD of 5×10^5 cells/mL in 100 μL of DMEM/F12 complete medium with triplication. Then 100 μL of cell growth medium containing ADC or free drug was added to reach final concentrations of 0-200 nM and incubated in CO2 incubator for 72 hrs. The cytotoxicity of ADC or free drug was measured with CellTiter-Glo Luminescent Cell Viability Assay (Promega, Madison, […]) and reported as the relative viability using untreated cells as control. The IC50 value was calculated using ED50V10 Excel add-in.

MDA-MB-231 cells [2] = test: In vitro cytotoxicity assay (CellTiter-Glo); type: cell-based, human; details: for cell viability: 3-day assay
Method: as §1

CD47 = test: Western blotting of CD47 in GC treated MDA-MB-231 cells; type: cell-based, human; details: 10 nM for 3 weeks
Method: The non-reducing SDS-PAGE was run by loading 2 μg of mAb or ADC to Bolt™ 4 to 12%, Bis-Tris Mini Protein Gel (1.0 mm) to validate the purity and integrality of the produced anti-CD47 mAb and ADC. In Western blotting analysis, 30 μg of total cell lysis protein was loaded to gel and electro-transferred to PVDF membrane using PowerEase™ Touch 350 W Power Supply (Fisher). After blocking, the blotted membrane was probed using primary rabbit anti-mouse antibody and HRP-conjugated secondary anti-rabbit antibody (Abcam, Cambridge, UK). The blotted membrane was treated with Luminata Forte Western HRP substrate (Millipore, Boston, MA). The SDS-PAGE and Western blots were imaged with MyECL imager and quantified using ImageJ software.
The surface expression of CD47 in TNBC cell lines was analyzed using mass spectrometry (MS, Thermo Orbitrap Velos Pro) at the University of Alabama at Birmingham (UAB) MS and proteomics core facility. […] Furthermore, to confirm the CD47 upregulation by chemotherapy, we treated MDA-MB-231 cells with 10 nM GC for 3 weeks.

[3] = system: MDA-MB-231-FLuc xenograft; test: IVIS imaging of in vivo TNBC targeting; design: species or system mouse
Source text: (§2) Human TNBC xenograft mouse model was generated by subcutaneously (s.c.) injecting 3×10^6 of MDA-MB-231-FLuc cells into the 6-week-old NSG (NOD scid gamma) female mice (Jackson Labs, Bar Harbor, ME). This immunocompromised model was used to evaluate the tumor targeting of our mAb and anti-TNBC efficacy of the constructed ADC. The immunocompetent mouse model was generated by injecting 1×10^6 of mouse TNBC 4T1-FLuc cells into the BALB/cJ female mice, which was used to analyze the tumoral immunity. Mice developed tumors within 2 weeks post cells injection.
When TNBC tumor volume reached approximately 100 mm^3, 50 μg of Cyanine 5.5 (Cy5.5, Lumiprobe, Hunt Valley, MD) labelled anti-CD47 mAb or 1.5 nmole Cy5.5 (control, similar amount as labelled Cy5.5 in mAb) was intravenously (i.v.) administrated via tail vein for TNBC-targeting analysis. Mice were imaged at 24 hrs post mAb injection under IVIS Lumina Series III (PerkinElmer, Waltham, MA) with wavelength of 660 nm/710 nm (excitation/emission) and exposure time of 10 seconds. Inhalation anesthesia was induced by delivering 3.5-4.5% isoflurane in oxygen to mice via respiratory system (nose cone), then maintained with a concentration of 1-2% during imaging procedure.

lymph node immune cells = test: Flow cytometry analysis of immune cells in lymph nodes, 4T1 xenograft BALB/cJ model; type: in vivo, mouse; details: 8 mg/kg, BALB/cJ 4T1 xenograft
Method: (§3) The flow cytometry was conducted to analyze anti-CD47 mAb's binding rate to TNBC cells and quantify the immune cells using a BD LSRII flow cytometer (BD Biosciences, San Jose, CA). In surface binding analysis, the produced CD47 mAb was labelled with an Alexa Fluor™ 647 labelling kit (Life Technologies, part of Fisher) and used to stain MDA-MB-468, MDA-MB-231, 4T1, and 184B5 cells with 5 μg of mAb-AF647 per million of cells at room temperature for 30 mins (Ou, J.; et al. PLOS ONE 2018; Si, Y.; et al. Pharmaceutics 2020, 12:1079-1090; Ou, J.; et al. J Biol Eng 2019, 13:34). The harvested lymph nodes were dissociated with Tissue Dissociation/Single Cell Isolation Kit (101 Bio LLC, Sunnyvale, CA) following manufacturing procedure, and stained with Cy5 anti-CD69 antibody, APC anti-CD11c antibody, or PE/Cy7 anti-CD4 antibody (BioLegend, San Diego, CA) for flow cytometry analysis.
as §2
The general immune response to anti-CD47 mAb was also tested using whole blood analysis and flow cytometry analysis of lymph nodes in the 4T1 xenograft BALB/cJ model (n=4). The mice carrying 50 mm^3 xenograft were treated with 8 mg/kg anti-CD47 mAb. After two weeks, blood was collected through cardiac puncture. […] The lymph nodes were also harvested and dissociated for flow cytometry analysis of fresh cells. […] In the future, a full investigation of immune function in tumor microenvironment is needed in order to delineate the possible anti-TNBC immunity of this mAb.

[4] = system: MDA-MB-231-FLuc xenograft; test: In vivo anti-TNBC efficacy study; design: species or system mouse; unit not given here; details: 8 mg/kg i.v. Q4Dx4, terminal tumor; no significant difference to PBS group
Source text: as §2
The TNBC MDA-MB-231-FLuc xenograft mice were treated with 16 mg/kg-BW of GC by intraperitoneal (IP) injection when tumor volume reached ˜50 mm^3. […] Tumor volume was measured using an electronic caliper and calculated as “width×width×length/2” in mm. Body weight was measured every other day. The in vivo treatment study was ended after 21-day treatment which was determined based on our previous ADC treatment animal study (Si, Y.; et al. Eng Life Sci 2021, 21:37-44; Ou, J.; et al. PLoS One 2018, 13:e0206246; Xu, N.; et al. Biochemical Engineering Journal 2019, 145:177-185). At the end of the experiment, mice were euthanized and the TNBC tumors were collected to measure the wet weight.

[5] = Whole blood analysis (HemaVet 950FS) in 4T1 xenograft BALB/cJ model; type: in vivo, mouse; details: 8 mg/kg, after two weeks, BALB/cJ 4T1 xenograft
Source text: The blood samples were extracted by cardiac puncture for whole blood analysis using HemaVet 950FS (Drew Scientific, Miami Lakes, FL). The leukocytes (white blood cell, neutrophil, lymphocyte, monocyte, eosnophils), erythrocytes (red blood cell, hemoglobin, mean corpuscular hemoglobin), and thrombocytes (platelet) were titrated to analyze the general peripheral immune response.
as §2
The general immune response to anti-CD47 mAb was also tested using whole blood analysis and flow cytometry analysis of lymph nodes in the 4T1 xenograft BALB/cJ model (n=4). The mice carrying 50 mm^3 xenograft were treated with 8 mg/kg anti-CD47 mAb. After two weeks, blood was collected through cardiac puncture. […] The lymph nodes were also harvested and dissociated for flow cytometry analysis of fresh cells. […]

4T1 cells = test: Flow cytometry surface binding; details: mouse TNBC 4T1, mAb-AF647, flow cytometry
Method: as §3

[6] = system: normal breast 184B5 cells; test: Flow cytometry surface binding; details: normal 184B5 cells, mAb-AF647, flow cytometry
Method: as §3

MDA-MB-468 cells [7] = test: Live-cell confocal imaging of internalization; type: cell-based, human; details: AF647 labelled mAb
Source text: Confocal microscopy imaging was collected to validate the targeting and internalization of anti-CD47 mAb in TNBC cells following our reported protocol (Si, Y.; et al. Cancer Gene Therapy. Cancer Gene Therapy 2020; Si, Y.; et al. Eng Life Sci 2021, 21:37-44; Ou, J.; et al. PLOS ONE 2018; Si, Y.; et al. Pharmaceutics 2020, 12:1079-1090; Si, Y.; et al. Biotechnol J 2019). Briefly, the MDA-MB-468 cells were stained with BacMam GFP Transduction Control, which expresses eGFP protein in cytoplasm, NucBlue Live ReadyProbes to stain nucleus, and AF647 labelled anti-CD47 mAb to target TNBC cells via surface receptor. The live-cell images were collected using a Nikon A1R-HD25 confocal microscope with a high-speed resonance scanner (Nikon USA, Melville, NY).

[8] = Toxicity in the efficacy study (body weight, H&E staining of organs); type: in vivo, mouse; details: 8 and 24 mg/kg ADC, 8 mg/kg mAb, PBS; Q4Dx4
Method: […] […] Tumor volume was measured using an electronic caliper and calculated as “width×width×length/2” in mm. Body weight was measured every other day. The in vivo treatment study was ended after 21-day treatment which was determined based on our previous ADC treatment animal study (Si, Y.; et al. Eng Life Sci 2021, 21:37-44; Ou, J.; et al. PLoS One 2018, 13:e0206246; Xu, N.; et al. Biochemical Engineering Journal 2019, 145:177-185). At the end of the experiment, mice were euthanized and the TNBC tumors were collected to measure the wet weight.
The IHC and H&E staining were performed. In IHC staining, the paraffin-embedded slides were immersed in xylene followed by 3% H2O2 in PBS, and blocked with 3% normal goat serum. The rabbit anti-mouse CD11b mAb (Cell Signaling, Danvers, MA) and HRP-conjugated goat anti-rabbit IgG mAb were used to stain the macrophage in tumor tissue. After color development with DAB chromogen, the slides were counterstained with hematoxylin and dehydrated in absolute ethanol. In H&E staining, the embedded normal organ slides were dewaxed, hydrated with 100%-0% ETOH, immersed in hematoxylin solution, and rinsed with tap water and eosin. After equilibration in ethanol, the stained slides were dipped in Xylene and mounted with cytoseal Xyl.

MDA-MB-468 cells [9] = test: Flow cytometry surface binding; design: species or system human; details: MDA-MB-468, mAb-AF647, flow cytometry
Method: as §3

MDA-MB-231 cells [10] = test: Flow cytometry surface binding; design: species or system human; details: MDA-MB-231, mAb-AF647, flow cytometry
Method: as §3

Molecule: COc1cc2cc(c1Cl)N(C)C(=O)C[C@H](OC(=O)[C@H](C)N(C)C(=O)CCS)[C@]1(C)O[C@H]1[C@H](C)[C@@H]1C[C@@](O)(NC(=O)O1)[C@H](OC)/C=C/C=C(\C)C2 [DM1, mertansine]
- cell viability (MDA-MB-468 cells [1]; MDA-MB-468, 25 nM): 56%
- cell viability (MDA-MB-468 cells [1]; MDA-MB-468, 50 nM): 37%
- cell viability (MDA-MB-468 cells [1]; MDA-MB-468, 100 nM): 32%
- cell viability (MDA-MB-468 cells [1]; MDA-MB-468, 200 nM): 34%
- IC50 (MDA-MB-468 cells [1]; MDA-MB-468, 72 hrs): 21 nM
- cell viability (MDA-MB-231 cells [2]; MDA-MB-231, 25 nM): 94%
- cell viability (MDA-MB-231 cells [2]; MDA-MB-231, 50 nM): 72%
- cell viability (MDA-MB-231 cells [2]; MDA-MB-231, 100 nM): 53%
- cell viability (MDA-MB-231 cells [2]; MDA-MB-231, 200 nM): 54%
- IC50 (MDA-MB-231 cells [2]; MDA-MB-231, 72 hrs): 47 nM

Molecule: Nc1ccn([C@@H]2O[C@H](CO)[C@@H](O)C2(F)F)c(=O)n1 [GC, gemcitabine]
- CD47 expression (CD47): increased

Molecule: Cyanine 5.5 [Cy5.5]
- distribution in major organs (brain, heart, lung, spleen, kidney, liver) ([3]; 24 hrs post i.v. injection, IVIS): distributed in multiple locations such as brain, liver and kidney

B1: anti-CD47 mAb: anti-CD47 mAb (IgG2b/kappa) targeting the extracellular domain (Gln19-Glu141) of CD47; heavy chain SEQ ID NO:1, light chain SEQ ID NO:2 (antibody)
heavy: MLLGLKWVFFVVFYQGVHCEVQLVESGGGLVQPKGSLKLSCAASGFTFNTYAMNWVRQAPGKGLEWIARIRSKSNNYATYYADSMKDRFTISRDDSQSMLYLQMNNLKTEDTAMYYCVRPAQGAMDYWGHGTSVTVSSSKTTPPSVYPLAPGCGDTTGSSVTLGCLVKGYFPESVTVTWNSGSLSSSVHTFPALLQSGLYTMSSSVTVPSSTWPSQTVTCSVAHPASSTTVDKKLEPSGPISTINPCPPCKECHKCPAPNLEGGPSVFIFPPNIKDVLMISLTPKVTCVVVDVSEDDPDVQISWFVNNVEVHTAQTQTHREDYNSTIRVVSTLPIQHQDWMSGKEFKCKVNNKDLPSPIERTISKIKGLVRAPQVYILPPPAEQLSRKDVSLTCLVVGFNPGDISVEWTSNGHTEENYKDTAPVLDSDGSYFIYSKLNMKTSKWEKTDSFSCNVRHEGLKNYYLKKSFSRTPGK
light: MVFTPQILGLMLFWISASRGDIVLTQSPATLSVTPGDSVSLSCRASQRISNNLHWYQQKSHESPRLLIKYSSQSISGIPSRFSGSGSGTDFTLSINSVETEDFGMYFCQQSNAWPYTFGGGTKLEIRRADAAPTVSIFPPSSEQLTSGGASVVCFLNNFYPKDINVKWKIDGSERQNGVLNSWTDQDSKDSTYSMSSTLTLTKDEYERHNSYTCEATHKTSTSPIVKSFNRNEC
- CD11c+ DC cells in lymph nodes (lymph node immune cells; PBS control 5.44%): 8.49%
- CD69+ NK cells in lymph nodes (lymph node immune cells; PBS control 6.55%): 10.3%
- CD4+ T cells in lymph nodes (lymph node immune cells; PBS control 63.8%): 68.3%
- tumor weight [4]: 307±76
- time to targeting and accumulation in TNBC tumor post i.v. injection ([3]; mouse, in vivo, iv): ≤ 24 h
- leukocytes, erythrocytes and thrombocytes counts vs PBS control group [5]: no obvious difference
- surface binding (4T1 cells): 90.5%
- surface binding [6]: 4.39%
- time to internalization and localization in cytoplasm after mixing (MDA-MB-468 cells [7]): ≤ 60 min
- overall body weight change among the four groups [8]: no obvious difference
- surface binding (MDA-MB-468 cells [9]): 98.9%
- surface binding (MDA-MB-231 cells [10]): 97.3%
